These results are taken from ChEMBL document CHEMBL4673231, “Novel isoniazid embedded triazole derivatives: Synthesis, antitubercular and antimicrobial activity evaluation” (Bioorg Med Chem Lett, 2020).

In brackets after ≈: the same amount, converted by molar mass. Activity calls are given as the source filed them. The rule behind the calls is not given here.

Data set [1] has as its system Mycobacterium tuberculosis. Briefly: Antimycobacterial activity against Mycobacterium tuberculosis H37Rv assessed as reduction in microbial growth incubated for 7 days by alamar blue assay. Particulars: 168 h, time 7 day. The class given is functional.
A short description of data set [2]: Cytotoxicity against mouse RAW264.7 cells assessed as reduction in cell viability at 25 ug/ml incubated for 48 hrs by MTT assay. To be noted: at 25 µg/mL, read-out: INH. The class given is cell-based.
For data set [3], the system named is Staphylococcus aureus. The data set can be described thus: Antibacterial activity against Staphylococcus aureus assessed as diameter of inhibition zone at 1 mg/ml incubated for 24 hrs by agar well diffusion assay. The class given is functional. To be noted: read-out: DIZ.
In another data set the test system is Bacillus cereus. Briefly: Antibacterial activity against Bacillus cereus assessed as diameter of inhibition zone at 1 mg/ml incubated for 24 hrs by agar well diffusion assay. The data set is classed as functional. To be noted: read-out: DIZ.
Another data set deals with Bacillus subtilis. Briefly: Antibacterial activity against Bacillus subtilis assessed as diameter of inhibition zone at 1 mg/ml incubated for 24 hrs by agar well diffusion assay. Particulars: read-out: DIZ. The data set is classed as functional.
In data set [4] the test system is Klebsiella aerogenes. The data set can be described thus: Antibacterial activity against Enterobacter aerogenes assessed as diameter of inhibition zone at 1 mg/ml incubated for 24 hrs by agar well diffusion assay. The data set is classed as functional. Particulars: read-out: DIZ.
Another data set relates to Escherichia coli. The data set can be described thus: Antibacterial activity against Escherichia coli assessed as diameter of inhibition zone at 1 mg/ml incubated for 24 hrs by agar well diffusion assay. The data set is classed as functional.
For data set [5], the system named is Salmonella typhi. Briefly: Antibacterial activity against Salmonella typhi assessed as diameter of inhibition zone at 1 mg/ml incubated for 24 hrs by agar well diffusion assay. The data set is classed as functional, Salmonella enterica subsp. enterica serovar Typhi. To be noted: Salmonella enterica, read-out: DIZ.
A further data set has as its system Pseudomonas aeruginosa. Briefly: Antibacterial activity against Pseudomonas aeruginosa assessed as diameter of inhibition zone at 1 mg/ml incubated for 24 hrs by agar well diffusion assay. The data set is classed as functional.
A further data set deals with Shigella boydii. Briefly: Antibacterial activity against Shigella boydii assessed as diameter of inhibition zone at 1 mg/ml incubated for 24 hrs by agar well diffusion assay. The data set is classed as functional. Particulars: read-out: DIZ.
In data set [6] the test system is Salmonella enterica subsp. enterica serovar Abony. Briefly: Antibacterial activity against Salmonella enterica subsp. enterica serovar Abony assessed as diameter of inhibition zone at 1 mg/ml incubated for 24 hrs by agar well diffusion assay. The class given is functional.
The subject of the next data set is Aspergillus niger. The data set can be described thus: Antifungal activity against Aspergillus niger assessed as diameter of inhibition zone at 1 mg/ml incubated for 24 hrs by agar well diffusion assay. The class given is functional. To be noted: read-out: DIZ.
For a further data set, the system named is Saccharomyces cerevisiae. Briefly: Antifungal activity against Saccharomyces cerevisiae assessed as diameter of inhibition zone at 1 mg/ml incubated for 24 hrs by agar well diffusion assay. The class given is functional. Particulars: read-out: DIZ.
For data set [7], the system named is Salmonella typhi. The data set can be described thus: Antibacterial activity against Salmonella typhi ATCC 9207 by CLSI method. The class given is functional, Salmonella enterica subsp. enterica serovar Typhi. To be noted: Salmonella enterica.
Data set [8] concerns Staphylococcus aureus. Briefly: Antibacterial activity against Staphylococcus aureus ATCC 6538 by CLSI method. The data set is classed as functional.
For data set [9], the system named is Klebsiella aerogenes. The data set can be described thus: Antibacterial activity against Enterobacter aerogenes ATCC 13048 by CLSI method. The data set is classed as functional.

`O=C(N/N=C/c1cc([N+](=O)[O-])ccc1OCc1cn(-c2ccccc2Cl)nn1)c1ccncc1`: the MIC in data set [1] turned out to be 1.56 mg/L; with Salmonella typhi [7], 170 mg/L (≈ 356 µM); against Staphylococcus aureus [8], 200 mg/L (≈ 419 µM); against Klebsiella aerogenes [9] it was 130 mg/L (≈ 272 µM). In data set [2], the cytotoxicity at 48 h, 25 ug/ml is 24.2%. Further, the zone of inhibition at 1000 µg/mL in the data set with Staphylococcus aureus [3] is 12 mm; in the data set with Bacillus cereus it was 11 mm; with Bacillus subtilis, 9 mm; with Klebsiella aerogenes [4], 10 mm; in the data set on Escherichia coli (read-out: DIZ), 12 mm; in the data set with Salmonella typhi [5], 10 mm. For the same molecule, the zone of inhibition at 1000 µg/mL with Shigella boydii was 7 mm; in the data set on Aspergillus niger it was 10 mm; with Saccharomyces cerevisiae, 12 mm. Further, the “diameter of the inhibition zone (DIZ)” value (in the data set on Pseudomonas aeruginosa; in [6]) was “inactive” in each case.
In the case of `Cc1ccccc1-n1cc(COc2ccc([N+](=O)[O-])cc2/C=N/NC(=O)c2ccncc2)nn1`, the MIC in data set [1] was 1.56 mg/L; against Salmonella typhi [7], 270 mg/L (≈ 590 µM); against Staphylococcus aureus [8] it was 310 mg/L (≈ 678 µM); against Klebsiella aerogenes [9], 190 mg/L (≈ 415 µM). Besides, the cytotoxicity at 48 h, 25 ug/ml in [2] was 24.2%. Besides, the zone of inhibition at 1000 µg/mL in the data set on Staphylococcus aureus [3] is 13 mm; in the data set with Bacillus cereus it was 12 mm; in the data set with Bacillus subtilis, 11 mm; with Klebsiella aerogenes [4], 10 mm; with Salmonella typhi [5], 11 mm; in the data set with Pseudomonas aeruginosa (read-out: DIZ), 10 mm. Moreover, the zone of inhibition at 1000 µg/mL with Shigella boydii worked out at 14 mm; in data set [6] (read-out: DIZ) it was 12 mm; in the data set on Aspergillus niger, 9 mm; in the data set on Saccharomyces cerevisiae, 12 mm. Further, the “diameter of the inhibition zone (DIZ)” value in the data set with Escherichia coli is “inactive”.
